≈ marks a conversion by molar mass, not a printed value. Calls of active or inactive are those of the source. The rule behind the calls is not given here.
What was measured:
Staphylococcus aureus [1] = assay: Antibacterial activity against methicillin-resistant Staphylococcus aureus USA400 NRS123 up to 20 hrs by broth microdilution assay; format: functional; conditions: USA400 NRS123, 20 h
Enterococcus faecium = assay: Antibacterial activity against vancomycin-resistant Enterococcus faecium ATCC 700221 up to 20 hrs by broth microdilution assay; format: functional; conditions: ATCC 700221, 20 h
Staphylococcus aureus [2] = assay: Antibacterial activity against vancomycin-resistant Staphylococcus aureus VRS11a up to 20 hrs by broth microdilution assay; format: functional
Staphylococcus aureus [3] = assay: Antibacterial activity against vancomycin-resistant Staphylococcus aureus VRS10 up to 20 hrs by broth microdilution assay; format: functional; conditions: VRS10, 20 h
Staphylococcus aureus [4] = assay: Potentiation of vancomycin-induced antibacterial activity against vancomycin-resistant Staphylococcus aureus VRS10 assessed as fold reduction in vancomycin MIC at 0.5 times MIC after 20 to 22 hrs; format: functional
Pseudomonas aeruginosa = assay: Antibacterial activity against Pseudomonas aeruginosa ATCC 15442 up to 20 hrs by broth microdilution assay; format: functional; conditions: ATCC 15442, 20 h
Staphylococcus aureus [5] = assay: Bactericidal activity against vancomycin-resistant Staphylococcus aureus VRS11a up to 18 hrs by broth microdilution assay; format: functional; conditions: read-out: MBC99.9
Staphylococcus aureus [6] = assay: Antibacterial activity against methicillin-resistant Staphylococcus aureus 2658 RCMB up to 20 hrs by broth microdilution assay; format: functional
Staphylococcus aureus [7] = assay: Antibacterial activity against methicillin-resistant Staphylococcus aureus USA300 infected in Caenorhabditis elegans AU37 harboring (sek-1(km4);glp-4(bn2)I) mutant assessed as reduction in bacterial burden at 20 ug/ml after 18 hrs by microscopic analysis relative to control; format: functional; set-up: scale not given: the % may be the effect or the level left
Staphylococcus aureus [8] = assay: Bactericidal activity against vancomycin-resistant Staphylococcus aureus VRS12 up to 18 hrs by broth microdilution assay; format: functional; conditions: VRS12, 18 h, read-out: MBC99.9
Staphylococcus aureus [9] = assay: Potentiation of vancomycin-induced antibacterial activity against vancomycin-resistant Staphylococcus aureus VRS10 assessed as reduction in vancomycin MIC after 20 hrs by checkerboard assay; format: functional
Staphylococcus aureus [10] = assay: Synergistic antibacterial activity against vancomycin-resistant Staphylococcus aureus VRS10 after 20 hrs in presence of vancomycin by checkerboard assay; format: functional; conditions: VRS10, 20 h
Staphylococcus aureus [11] = assay: Bactericidal activity against vancomycin-resistant Staphylococcus aureus VRS10 up to 18 hrs by broth microdilution assay; format: functional; conditions: VRS10, 18 h, read-out: MBC99.9
Staphylococcus aureus [12] = assay: Bactericidal activity against Staphylococcus aureus RN4220 up to 18 hrs by broth microdilution assay; format: functional; conditions: RN4220, 18 h, read-out: MBC99.9
Staphylococcus aureus [13] = assay: Potentiation of vancomycin-induced antibacterial activity against vancomycin-resistant Staphylococcus aureus VRS10 assessed as vancomycin MIC after 20 hrs by checkerboard assay; format: functional; conditions: VRS10, 20 h
Staphylococcus aureus [14] = assay: Bactericidal activity against methicillin-resistant Staphylococcus aureus NRS119 up to 18 hrs by broth microdilution assay; format: functional; conditions: NRS119, 18 h, read-out: MBC99.9
[15] = Selectivity index, ratio of cytotoxic concentration for human HRT18 cells to MIC for methicillin-resistant Staphylococcus aureus; format: toxicity; conditions: read-out: Selectivity Index
Staphylococcus aureus [16] = assay: Bactericidal activity against methicillin-resistant Staphylococcus aureus USA400 NRS123 up to 18 hrs by broth microdilution assay; format: functional; conditions: USA400 NRS123, 18 h, read-out: MBC99.9
Staphylococcus aureus [17] = assay: Antibacterial activity against methicillin-resistant Staphylococcus aureus NRS119 up to 20 hrs by broth microdilution assay; format: functional; conditions: NRS119, 20 h
HRT-18 cell line [18] = assay: Cytotoxicity against human HRT18 cells up to 64 microg/ml after 6 hrs by MTS assay; format: cell-based; conditions: hrt-18, 6 h
Staphylococcus aureus [19] = assay: Antibacterial activity against Staphylococcus aureus RN4220 up to 20 hrs by broth microdilution assay; format: functional; conditions: RN4220, 20 h
Staphylococcus aureus [20] = assay: Antibacterial activity against vancomycin-resistant Staphylococcus aureus VRS12 up to 20 hrs by broth microdilution assay; format: functional; conditions: VRS12, 20 h
[21] = Half life in human liver microsomes in absence of NADPH by LC-MS/MS analysis; format: ADME, microsome
[22] = Intrinsic clearance in human liver microsomes in absence of NADPH by LC-MS/MS analysis; format: ADME, microsome; conditions: read-out: CLH
[23] = Apparent permeability of the compound across basolateral side to apical side in human Caco2 cells by LC-MS/MS analysis; format: ADME, cell-based; conditions: Caco-2
[24] = Efflux ratio of permeability from basolateral to apical side over apical to basolateral side of human Caco2 cells by LC-MS/MS analysis; format: ADME, cell-based; conditions: Caco-2
HRT-18 cell line [25] = assay: Cytotoxicity against human HRT18 cells up to 32 microg/ml after 6 hrs by MTS assay; format: cell-based; conditions: hrt-18, 6 h
Staphylococcus aureus [26] = assay: Antibacterial activity against methicillin-resistant Staphylococcus aureus USA300 at 4 times MIC after 12 hrs by time-kill assay; format: functional, organism-based
HRT-18 cell line [27] = assay: Cytotoxicity against human HRT18 cells at 64 microg/ml after 6 hrs by MTS assay; format: cell-based; conditions: hrt-18, 6 h
Staphylococcus aureus [28] = assay: Potentiation of vancomycin-induced antibacterial activity against vancomycin-resistant Staphylococcus aureus VRS10 assessed as vancomycin MIC at 0.5 times MIC after 20 to 22 hrs (reference value: […] ug/mL); format: functional
HRT-18 cell line [29] = assay: Cytotoxicity against human HRT18 cells up to 128 microg/ml after 6 hrs by MTS assay; format: cell-based; conditions: hrt-18, 6 h
[30] = Aqueous solubility of the compound in PBS after 2 hrs by turbidimetric method; format: physicochemical

| SMILES | MIC (Staphylococcus aureus [1]) [µg/mL] | MIC (Enterococcus faecium) [µg/mL] | MIC (Staphylococcus aureus [2]) [µg/mL] | MIC (Staphylococcus aureus [3]) [µg/mL] | MIC (Pseudomonas aeruginosa) [µg/mL] | MBC (Staphylococcus aureus [5]) [µg/mL] | MIC (Staphylococcus aureus [6]) [µg/mL] | MBC (Staphylococcus aureus [8]) [µg/mL] | fractional inhibitory concentration index (FICI) (Staphylococcus aureus [9]) | MIC (Staphylococcus aureus [10]) [µg/mL] | MBC (Staphylococcus aureus [11]) [µg/mL] | MBC (Staphylococcus aureus [12]) [µg/mL] | MIC (Staphylococcus aureus [13]) [µg/mL] | MBC (Staphylococcus aureus [14]) [µg/mL] | MBC (Staphylococcus aureus [16]) [µg/mL] | MIC (Staphylococcus aureus [17]) [µg/mL] | MIC (Staphylococcus aureus [19]) [µg/mL] | MIC (Staphylococcus aureus [20]) [µg/mL] | further results |
| --- | --- | --- | --- | --- | --- | --- | --- | --- | --- | --- | --- | --- | --- | --- | --- | --- | --- | --- | --- |
| Cc1nc(-c2ccc(-c3ccccc3)cc2)sc1-c1ccnc(NN2CCN(C)CC2)n1 | 4 (≈ 9.04 µM) | > 64 | 8 (≈ 18.1 µM) | 8 (≈ 18.1 µM) | > 64 | 8 (≈ 18.1 µM) | 0.78 (≈ 1.76 µM) | 8 (≈ 18.1 µM) | 0.51 - 0.56 | 4 | 8 (≈ 18.1 µM) | 8 (≈ 18.1 µM) | 4 to 8 | 4 (≈ 9.04 µM) | 4 (≈ 9.04 µM) | 4 (≈ 9.04 µM) | 4 (≈ 9.04 µM) | 8 (≈ 18.1 µM) | fold change (FC) (Staphylococcus aureus [4]): 128; Activity (Staphylococcus aureus [7]): 46%; selectivity ratio [15]: 16; Activity (HRT-18 cell line [18]): Non-Toxic |
| CCCCc1ccc(-c2nc(C)c(/C(C)=N/NC(=N)N)s2)cc1 |  |  |  |  |  |  | 4.7 to 4.8 (≈ 14.3 to 14.6 µM) |  |  |  |  |  |  |  |  |  |  |  | half-life [21]: > 4 h; microsomal CLint [22]: < 9.6 µL/min/mg; Papp B→A [23]: 1.2 ×10⁻⁶ cm/s; efflux ratio [24]: > 2 |
| Cc1nc(-c2ccc(-c3ccccc3)cc2)sc1-c1ccnc(NC(=N)N2CCOCC2)n1 | 16 (≈ 35 µM) | 8 (≈ 17.5 µM) | 32 (≈ 70.1 µM) | 32 (≈ 70.1 µM) | > 64 | 64 (≈ 140 µM) | 0.78 (≈ 1.71 µM) | 64 (≈ 140 µM) |  |  | 64 (≈ 140 µM) | 32 (≈ 70.1 µM) |  | 16 (≈ 35 µM) | 16 (≈ 35 µM) | 8 (≈ 17.5 µM) | 8 (≈ 17.5 µM) | 64 (≈ 140 µM) | Activity (HRT-18 cell line [25]): Non-Toxic; Activity (Staphylococcus aureus [26]): inactive; Activity (HRT-18 cell line [27]): Toxic |
| Cc1nc(-c2ccc(-c3ccccc3)cc2)sc1-c1ccnc(N2CCN(C)CC2)n1 |  |  |  | 32 (≈ 74.8 µM) |  |  | 6.25 (≈ 14.6 µM) |  | 0.03 - 0.53 | 1 |  |  | 0.5 to 64 |  |  |  |  |  | MIC (Staphylococcus aureus [28]): 1 µg/mL; Activity (HRT-18 cell line [29]): Non-Toxic |
| Cc1nc(-c2ccc(-c3ccccc3)cc2)sc1-c1ccnc(NC(=N)N)n1 |  |  |  |  |  |  | 1.56 (≈ 4.04 µM) |  |  |  |  |  |  |  |  |  |  |  | solubility kinetic at 2 h [30]: 2.2 µM (≈ 0.85 µg/mL) |

From ChEMBL document CHEMBL4184141, “Investigating the Antibacterial Activity of Biphenylthiazoles against Methicillin- and Vancomycin-Resistant Staphylococcus aureus (MRSA and VRSA)” (J Med Chem, 2017)
